Test results reported in patent US10500178B2, “LTB4 inhibition to prevent and treat human lymphedema” (The Board of Trustees of the Leland Stanford Junior …, priority 2015, dated 2019).

Key:
Format in all cases: in vivo, mouse
[1] = test system: LEC S1pr1−/− mice; experiment: lymphedema surgery in LEC S1pr1-/- mice
Text: (§1) To generate lymphatic endothelial specific tdTomato reporter mice (Prox1-Cre-ER-tdTomato), Prox1-Cre-ER mice were crossed with tdTomato mice. To create lymphatic endothelial cell specific Notch1 or S1pr1 conditional knockouts, Prox1-Cre-ER mice were crossed with Notch1loxp/loxp or S1pr1loxp/loxp mice. Mice with Prox1-Cre-ER and both target alleles floxed by Prox1-Cre-ER/Notch1^loxp/loxp or Prox1-Cre-ER/S1pr1^loxp/loxp were considered to be either lymphatic endothelial cell-specific Notch1 knockout (LEC Notch1−/−) or S1pr1 knockout (LEC S1pr1^−/−), respectively. Mice expressing Prox1-Cre-ER were used as WT controls. […] Cre-mediated gene knockout efficiency was evaluated by enumerating Notch1- or S1PR1-expressing lymphatic endothelial cells or by qRT-PCR measurements of Notch1 or S1pr1 transcripts in the lymphatic endothelial cells, sorted by flow cytometry. […]
(§2) Tail volume quantitation. Tail-volume measurements at each designated time were quantified by observers blinded to the treatment status of the subjects. Tail volumes were calculated through a digital photographic technique pre-operatively, and post-operatively (d3, d9, d14, d20, and d24), using an Olympus D520 Zoom digital camera at SHQ resolution at a fixed distance from the subject (37 cm), as previously described. […]

[2] = test system: LTB4; experiment: serum LTB4 levels in lymphedema mice; conditions: therapies initiated on d3, assessed on d24
Description: All small molecule drugs were administered through daily intraperitoneal injection.
Quantification of LTB4, PGE2 and S1P with LC-MS/MS. Briefly, LTB4, PGE2 and S1P were separated from serum with an ACE reverse phase C18 HPLC column. Formic acid 0.5% in 5 mM NH4Ac (A) and formic acid 0.5% in acetonitrile/water (9/1) (B) were used as the mobile phase. […] The internal standard of this method was Carbutamide. The quantification limit was 1 ng/ml. The calibration range was 1-2000 ng/ml.

[3] = test system: LEC Notch1−/− mice; experiment: lymphedema surgery in LEC Notch1-/- mice
Text: as §1, §2

CC(C)C[C@H](NC(=O)[C@@H](O)[C@H](N)Cc1ccccc1)C(=O)O [bestatin, (2S)-2-[[(2S,3R)-3-amino-2-hydroxy-4-phenylbutanoyl]amino]-4-methylpentanoic acid]
lymphatic Sphk1 and eNOS expression after treatment [1]: remaining low
reversal of lymphedema (tail volume, dermal thickness, lymphatic dilation) [1]: failed to reverse lymphedema
serum LTB4 levels [2]: effectively reduced
response of lymphedema to therapy [3]: refractory
mural smooth muscle coverage around collecting lymphatics ([3]; as against WTs): not restituted
